Results reported in ChEMBL document CHEMBL6078709, “Discovery of Cyclic Lipopeptides, Octaminomycins C and D, by Engineering LysR Transcriptional Regulator of Streptomyces sp” (J Nat Prod, 2024).
Positions of bridges follow the written chain, without caps; N, C: chain ends. Non-standard residues stand in square brackets, D forms with d. Residues, ends and D or L forms follow the SMILES beside them. *: point of attachment. NMeY = CN[C@@H](Cc1ccc(O)cc1)C(=O)O; Propionyl = CCC(=O)*

Columns and labels:
Type in all cases: functional, cell-based
HUVEC = experiment: Antiangiogenic activity in human HUVEC cells assessed as inhibition of VEGF-induced tube formation incubated for 6 hrs by matrigel based inverted microscopic analysis
MDA-MB-231 = experiment: Antiproliferative activity against human MDA-MB-231 cells assessed as inhibition of cell growth incubated for 72 hrs by sulforhodamine B assay; conditions: MDA-MB-231, 72 h
HCT-116 = experiment: Antiproliferative activity against human HCT-116 cells assessed as inhibition of cell growth incubated for 72 hrs by sulforhodamine B assay; conditions: HCT-116, 72 h
SNU-638 = experiment: Antiproliferative activity against human SNU-638 cells assessed as inhibition of cell growth incubated for 72 hrs by sulforhodamine B assay; conditions: SNU-638, 72 h
A549 = experiment: Antiproliferative activity against human A549 cells assessed as inhibition of cell growth incubated for 72 hrs by sulforhodamine B assay; conditions: A549, 72 h
SK-HEP1 = experiment: Antiproliferative activity against human SK-HEP1 cells assessed as inhibition of cell growth incubated for 72 hrs by sulforhodamine B assay; conditions: SK-HEP1, 72 h

Row | Compound | IC50 (MDA-MB-231) [µM] | IC50 (HCT-116) [µM] | IC50 (SNU-638) [µM] | IC50 (A549) [µM] | IC50 (SK-HEP1) [µM] | IC50 (HUVEC) [µM]
1 | CCN(CC)CCNC(=O)c1c(C)[nH]c(/C=C2\C(=O)Nc3ccc(F)cc32)c1C [SUNITINIB] |  |  |  |  |  | 3.5
2 | CC(=O)N[C@@H]1C(=O)N[C@@H](Cc2ccccc2)C(=O)N[C@H](CC(C)C)C(=O)N[C@@H](C(C)C)C(=O)N2CCC[C@H]2C(=O)N[C@@H](CC(C)C)C(=O)N(C)[C@@H](Cc2ccc(O)cc2)C(=O)N2CCC[C@H]2C(=O)O[C@@H]1C (Ac-TF[dL]VPL[NMeY]P; ester 1-C) | > 20 | > 20 | 16.8 | > 20 | 19 | 28
3 | CCC(=O)N[C@@H]1C(=O)N[C@@H](Cc2ccccc2)C(=O)N[C@H](CC(C)C)C(=O)N[C@@H](C(C)C)C(=O)N2CCC[C@H]2C(=O)N[C@@H](CC(C)C)C(=O)N(C)[C@@H](Cc2ccc(O)cc2)C(=O)N2CCCC[C@H]2C(=O)O[C@@H]1C | > 20 | > 20 | 17.2 | 15.5 | 17.4 | > 40
4 | CCC(=O)N[C@@H]1C(=O)N[C@@H](Cc2ccccc2)C(=O)N[C@H](CC(C)C)C(=O)N[C@@H](C(C)C)C(=O)N2CCC[C@H]2C(=O)N[C@@H](CC(C)C)C(=O)N(C)[C@@H](Cc2ccc(O)cc2)C(=O)N2CCC[C@H]2C(=O)O[C@@H]1C (Propionyl-TF[dL]VPL[NMeY]P; ester 1-C) | > 20 | > 20 | > 20 | > 20 | > 20 | > 40

The next lines start with results.

Row | IC50 (MDA-MB-231) [µM] | IC50 (HCT-116) [µM] | IC50 (SNU-638) [µM] | IC50 (A549) [µM] | IC50 (SK-HEP1) [µM] | Compound | IC50 (HUVEC) [µM]
5 | 12 | > 20 | > 20 | 12.3 | 13.1 | CCC(=O)N[C@@H]1C(=O)N[C@@H](Cc2ccccc2)C(=O)N[C@H](CC(C)C)C(=O)N[C@@H](C(C)C)C(=O)N2CCC[C@H]2C(=O)N[C@@H](CC(C)C)C(=O)N(C)[C@@H](Cc2ccccc2)C(=O)N2CCC[C@H]2C(=O)O[C@@H]1C | > 40
6 | 2.43 | 3.16 | 1.96 | 2.73 | 3.78 | COc1cc([C@@H]2c3cc4c(cc3[C@@H](O[C@@H]3O[C@@H]5CO[C@@H](C)O[C@H]5[C@H](O)[C@H]3O)[C@H]3COC(=O)[C@H]23)OCO4)cc(OC)c1O [ETOPOSIDE] | 
